Measured values: patent US4069346A, “Compositions and methods for anesthetizing an animal using deuterated analogues of halothane and chloroform” (The Dow Chemical Company, priority 1977, dated 1978)

Columns and labels:
liver [1] = experiment: Relative hepatotoxicity of chloroform: serum glutamic-pyruvic transaminase (SGPT) level as indicator of liver damage after inhalation (Example 3); format: in vivo, male Fischer 344 rats; conditions: 0.36 percent (v/v); for SGPT level: inhaled two hours, blood collected after 24 hours, room air control 24.8 mμ/ml ± 2, groups of 10
Description: (§1) Appl. Pharmacol., 9, 139-151 (1966), which used the serum glutamic-pyruvic transaminase (SGPT) level as an indicator of liver damage.

male Fischer 344 rats [2] = conditions: 0.36 percent (v/v), two hours
Protocol: Halothane and deuterated halothane were vaporized by metering the liquid compounds at a controlled rate into a temperature regulated vaporization flask held at 150° C. The vapor was swept into the air inlet of a 30 liter glass exposure chamber at a rate of 6 liters/minute. The concentration of the anesthetic in the exposure chamber was monitored by gas-liquid chromatography using direct gas sampling loops.
Using the same equipment to expose the animals as that of Example 2, three groups of 10 male Fischer 344 rats were exposed to room air, 0.36 percent (v/v) chloroform and 0.36 percent (v/v) deuterated chloroform for two hours. The animals were maintained two to a cage for 24 hours following the exposure. At the end of this period, the animals were decapitated and blood was collected in plastic centrifuge tubes and allowed to clot. The SGPT levels were determined using a commercially available method. SGPT concentrations of each group of animals were compared with the other groups by nonparametric analysis of variance.

liver [3] = experiment: SGPT as indication of liver toxicity after anesthesia with halothane and deuterated halothane (Example 4); format: in vivo, Fischer 344 rats; conditions: 1 percent (v/v) in air, two hours; for SGPT levels, comparison with the control: 24 hours; for SGPT: blood collected after 24 hours, control 18.8
Protocol: as §1
Using the same techniques as described in Example 3 above, Fischer 344 rats were anesthetized for two hours with halothane and deuterated halothane using an anesthetic concentration of 1 percent (v/v) in air. After 24 hours, the animals were sacrificed and the blood collected from each. SGPT was run on each blood sample as in indication of liver toxicity.

liver [4] = conditions: cited from earlier work; for damage to the liver: literature: Anesth. 45, 622 (1976) and 43, 392 (1975)
male Fischer 344 rats [5] = experiment: Anesthetic properties on inhalation, halothane vs deuterated analogue (Example 2); format: in vivo; conditions: 0.75 volume/volume, 2 hours
Protocol: (§2) Three groups of 6 male Fischer 344 rats (6 months of age, 200-300 grams) were exposed to room air and 0.75 volume/volume halothane or the deuterated analogue for a period of 2 hours. Following exposure, all animals were maintained for 72 hours. […] The serum inorganic bromide concentration was determined using a specific ion electrode (Orion).

[6] = Serum inorganic bromide concentration 72 hours after inhalation exposure; format: in vivo, male Fischer 344 rats; conditions: 0.75 volume/volume, inhaled 2 hours, analysis of variance
Protocol: as §2

SMILES	SGPT level (liver [1]) [mμ/ml]	SGPT level, difference between chloroform and deuterated chloroform treated groups (liver [1]; two hours, 24 hours, nonparametric analysis of variance)	anesthetic properties, difference between chloroform and deuterated chloroform (male Fischer 344 rats [2])	SGPT levels, comparison with the control (liver [3])	SGPT (liver [3]) [mμ/ml]	damage to the liver (liver [4])	inorganic bromide in the blood (liver [4]; literature: Anesthes. 44, 194 (1976))	anesthetic properties, difference between halothane and the deuterated analogue (male Fischer 344 rats [5])	serum bromide levels, comparison of halothane with deuterated halothane [6]
[2H]C(Cl)(Cl)Cl [deuterated chloroform]	38.3	significant at p<0.05	no difference in the anesthetic properties						
FC(F)(F)C(Cl)Br (stereo not drawn) [halothane, 2-bromo-2-chloro-1,1,1-trifluorethane]				significant increase in SGPT levels	24.0	in some instances they cause damage to the liver	elevation of inorganic bromide in the blood	No difference in anesthetic properties	significantly higher than those treated with deuterated halothane, p<0.01
[2H]C(Cl)(Br)C(F)(F)F (stereo not drawn) [deuterated halothane, 2-bromo-2-chloro-1,1,1-trifluoroethane-d]				not significantly different from the control	19.6			No difference in anesthetic properties	
ClC(Cl)Cl [chloroform]	56.3		no difference in the anesthetic properties			in some instances they cause damage to the liver			
